Data reported in EP0908457B1, “3-(1,2-benzisothiazol- and isoxazol-5-Y1)-2,4(1H,3H)-pyrimidinedione or thione and 3-(1,2-benzisothiazol- and isoxazol-5-y1)-4(3H)-pyrimidinone or thione herbicidal agents” (BASF AKTIENGESELLSCHAFT, priority 1997, dated 1999).

How the values were obtained:
Cyperus iria = assay: Preemergence weed control under flooded paddy conditions, CYPIR (Rice Flatsedge); type: in vivo; conditions: flooded paddy, rated three to four weeks after treatment; on herbicidal effect rating, CYPIR: meaning of each grade not given here
[1] = test system: Echinochloa oryzoides (Ard.) Fritsch.; assay: Preemergence weed control under flooded paddy conditions, ECHORC (Watergrass (Calif.)); type: in vivo; conditions: flooded paddy, rated three to four weeks after treatment; on herbicidal effect rating, ECHORC: meaning of each grade not given here
[2] = test system: Oryza sativa, (L.) Tebonnet; assay: Rice tolerance to post-transplant applications under flooded paddy conditions (Example 187), ORYSAT (Rice, Tebonnet); conditions: rated three to four weeks after treatment
[3] = test system: Cyperus serotinus, Rottb.; assay: Preemergence weed control under flooded paddy conditions, CYPSE (Flatsedge); type: in vivo; conditions: rated three to four weeks after treatment; on herbicidal effect rating, CYPSE: meaning of each grade not given here
[4] = test system: Monochoria vaginalis, Presl.; assay: Preemergence weed control under flooded paddy conditions, MOOVA (Monochoria); type: in vivo; conditions: flooded paddy, rated three to four weeks after treatment; on herbicidal effect rating, MOOVA: meaning of each grade not given here
Sagittaria pygmaea, L. = assay: Preemergence weed control under flooded paddy conditions, SAGPY (Arrowhead (Pygmaea)); type: in vivo; conditions: flooded paddy, rated three to four weeks after treatment; on herbicidal effect rating, SAGPY: meaning of each grade not given here
[5] = Rate 0.0320 kg/ha, preemergence weeds
[6] = Rate 0.0620 kg/ha, preemergence weeds
[7] = Rate 0.1250 kg/ha, preemergence weeds
[8] = Rate 0.2500 kg/ha, preemergence weeds
[9] = Rate 0.0320 kg/ha, preemergence
[10] = Rate 0.0620 kg/ha, preemergence
[11] = Rate 0.1250 kg/ha, preemergence
[12] = Rate 0.2500 kg/ha, preemergence

## Cn1c(C(F)(F)F)cc(=O)n(-c2ccc3snc(C(C)(C)C(N)=O)c3c2)c1=O [Example 509, 1,2-Benzisothiazole-3-acetamide, 5-[3,6-dihydro-3-methyl-2,6-dioxo-4-(trifluoromethyl)-1(2H)-pyrimidinyl]-alpha,alpha-dimethyl-]
Cyperus iria; 0.0620 kg/ha, preemergence
  CYPIR herbicidal rating: 0.0
Cyperus iria; 0.1250 kg/ha, preemergence
  CYPIR herbicidal rating: 4.0
Cyperus iria; 0.2500 kg/ha, preemergence
  CYPIR herbicidal rating: 7.0
[1]; 0.0620 kg/ha, preemergence
  ECHORC herbicidal rating: 0.0
[1]; 0.1250 kg/ha, preemergence
  ECHORC herbicidal rating: 2.0
[1]; 0.2500 kg/ha, preemergence
  ECHORC herbicidal rating: 7.0
[2]; 0.0620 kg/ha
  ORYSAT herbicidal rating (rice tolerance): 0.0
[2]; 0.1250 kg/ha
  ORYSAT herbicidal rating (rice tolerance): 3.0
[2]; 0.2500 kg/ha
  ORYSAT herbicidal rating (rice tolerance): 7.0
[3]; 0.0620 kg/ha, preemergence
  CYPSE herbicidal rating: 0.0
[3]; 0.1250 kg/ha, preemergence
  CYPSE herbicidal rating: 0.0
[3]; 0.2500 kg/ha, preemergence
  CYPSE herbicidal rating: 7.0
[4]; 0.0620 kg/ha, preemergence
  MOOVA herbicidal rating: 0.0
[4]; 0.1250 kg/ha, preemergence
  MOOVA herbicidal rating: 4.0
[4]; 0.2500 kg/ha, preemergence
  MOOVA herbicidal rating: 9.0
Sagittaria pygmaea, L.; 0.0620 kg/ha, preemergence
  SAGPY herbicidal rating: 0.0
Sagittaria pygmaea, L.; 0.1250 kg/ha, preemergence
  SAGPY herbicidal rating: 3.0
Sagittaria pygmaea, L.; 0.2500 kg/ha, preemergence
  SAGPY herbicidal rating: 6.0

## Cn1c(C(F)(F)F)cc(=O)n(-c2ccc3snc(COCOCc4ccccc4)c3c2)c1=O [Example 461, 2,4(1H,3H)-Pyrimidinedione, 3-{3-{[(benzyloxy)-methoxy]methyl}-1,2-benzisothiazol-5-yl}-1-methyl-6-(trifluoromethyl)-]
Cyperus iria; 0.0320 kg/ha, preemergence
  CYPIR herbicidal rating: 6.0
Cyperus iria; 0.0620 kg/ha, preemergence
  CYPIR herbicidal rating: 9.0
Cyperus iria; 0.1250 kg/ha, preemergence
  CYPIR herbicidal rating: 9.0
Cyperus iria; 0.2500 kg/ha, preemergence
  CYPIR herbicidal rating: 9.0
[1]; 0.0320 kg/ha, preemergence
  ECHORC herbicidal rating: 9.0
[1]; 0.0620 kg/ha, preemergence
  ECHORC herbicidal rating: 9.0
[1]; 0.1250 kg/ha, preemergence
  ECHORC herbicidal rating: 9.0
[1]; 0.2500 kg/ha, preemergence
  ECHORC herbicidal rating: 9.0
[2]; 0.0320 kg/ha
  ORYSAT herbicidal rating (rice tolerance): 5.0
[2]; 0.0620 kg/ha
  ORYSAT herbicidal rating (rice tolerance): 5.0
[2]; 0.1250 kg/ha
  ORYSAT herbicidal rating (rice tolerance): 5.0
[2]; 0.2500 kg/ha
  ORYSAT herbicidal rating (rice tolerance): 6.0
[3]; 0.0320 kg/ha, preemergence
  CYPSE herbicidal rating: 0.0
[3]; 0.2500 kg/ha, preemergence
  CYPSE herbicidal rating: 7.0
[4]; 0.0320 kg/ha, preemergence
  MOOVA herbicidal rating: 7.0
[4]; 0.0620 kg/ha, preemergence
  MOOVA herbicidal rating: 7.0
[4]; 0.1250 kg/ha, preemergence
  MOOVA herbicidal rating: 9.0
[4]; 0.2500 kg/ha, preemergence
  MOOVA herbicidal rating: 9.0
Sagittaria pygmaea, L.; 0.0320 kg/ha, preemergence
  SAGPY herbicidal rating: 2.0
Sagittaria pygmaea, L.; 0.0620 kg/ha, preemergence
  SAGPY herbicidal rating: 3.0
Sagittaria pygmaea, L.; 0.1250 kg/ha, preemergence
  SAGPY herbicidal rating: 4.0
Sagittaria pygmaea, L.; 0.2500 kg/ha, preemergence
  SAGPY herbicidal rating: 6.0

## COC(=O)COc1cccc(-c2nsc3ccc(-n4c(=O)cc(C(F)(F)F)n(C)c4=O)cc23)c1 [Example 332, Acetic acid, {m-{5-[3,6-dihydro-3-methyl-2,6-dioxo-4-(trifluoromethyl)-1(2H)-pyrimidinyl]-1,2-benzisothiazol-3-yl}phenoxy}-, methyl ester]
Cyperus iria; [5]
  herbicidal effect rating, CYPIR: 9.0
Cyperus iria; [6]
  herbicidal effect rating, CYPIR: 9.0
Cyperus iria; [7]
  herbicidal effect rating, CYPIR: 9.0
Cyperus iria; [8]
  herbicidal effect rating, CYPIR: 9.0
[1]; [5]
  herbicidal effect rating, ECHORC: 6.5
[1]; [6]
  herbicidal effect rating, ECHORC: 8.5
[1]; [7]
  herbicidal effect rating, ECHORC: 9.0
[1]; [8]
  herbicidal effect rating, ECHORC: 9.0
[2]; Rate 0.0320 kg/ha
  herbicidal effect rating ORYSAT: 5.5
[2]; Rate 0.0620 kg/ha
  herbicidal effect rating ORYSAT: 5.5
[2]; Rate 0.1250 kg/ha
  herbicidal effect rating ORYSAT: 5.5
[2]; Rate 0.2500 kg/ha
  herbicidal effect rating ORYSAT: 7.5
[3]; [5]
  herbicidal effect rating, CYPSE: 4.0
[3]; [6]
  herbicidal effect rating, CYPSE: 4.5
[3]; [7]
  herbicidal effect rating, CYPSE: 4.5
[3]; [8]
  herbicidal effect rating, CYPSE: 7.5
[4]; [5]
  herbicidal effect rating, MOOVA: 9.0
[4]; [6]
  herbicidal effect rating, MOOVA: 9.0
[4]; [7]
  herbicidal effect rating, MOOVA: 9.0
[4]; [8]
  herbicidal effect rating, MOOVA: 9.0
Sagittaria pygmaea, L.; [5]
  herbicidal effect rating, SAGPY: 3.0
Sagittaria pygmaea, L.; [6]
  herbicidal effect rating, SAGPY: 3.5
Sagittaria pygmaea, L.; [7]
  herbicidal effect rating, SAGPY: 6.5
Sagittaria pygmaea, L.; [8]
  herbicidal effect rating, SAGPY: 9.0

## CC(c1nsc2ccc(-n3c(=O)cc(C(F)(F)F)n(C)c3=O)cc12)S(C)(=O)=O (stereo not shown) [Example 590, 2,4(1H,3H)-Pyrimidinedione, 1-methyl-3-{3-[1-(methylsulfonyl)ethyl}-1,2-benzisothiazol-5-yl}-6-(trifluoromethyl)-]
Cyperus iria; [9]
  herbicidal effect rating, CYPIR: 2.0
Cyperus iria; [10]
  herbicidal effect rating, CYPIR: 7.0
Cyperus iria; [11]
  herbicidal effect rating, CYPIR: 7.0
Cyperus iria; [12]
  herbicidal effect rating, CYPIR: 9.0
[1]; [9]
  herbicidal effect rating, ECHORC: 3.0
[1]; [10]
  herbicidal effect rating, ECHORC: 5.0
[1]; [11]
  herbicidal effect rating, ECHORC: 6.0
[1]; [12]
  herbicidal effect rating, ECHORC: 9.0
[2]; Rate 0.0320 kg/ha
  herbicidal effect rating ORYSAT: 3.0
[2]; Rate 0.0620 kg/ha
  herbicidal effect rating ORYSAT: 5.0
[2]; Rate 0.1250 kg/ha
  herbicidal effect rating ORYSAT: 5.0
[2]; Rate 0.2500 kg/ha
  herbicidal effect rating ORYSAT: 6.0
[3]; [9]
  herbicidal effect rating, CYPSE: 0.0
[3]; [12]
  herbicidal effect rating, CYPSE: 5.0
[4]; [10]
  herbicidal effect rating, MOOVA: 7.0
[4]; [11]
  herbicidal effect rating, MOOVA: 7.0
[4]; [12]
  herbicidal effect rating, MOOVA: 9.0
Sagittaria pygmaea, L.; [9]
  herbicidal effect rating, SAGPY: 3.0
Sagittaria pygmaea, L.; [10]
  herbicidal effect rating, SAGPY: 4.0
Sagittaria pygmaea, L.; [11]
  herbicidal effect rating, SAGPY: 8.0
Sagittaria pygmaea, L.; [12]
  herbicidal effect rating, SAGPY: 9.0
